Source: the NIST ThermoML archive (doi:10.1016/j.jct.2004.04.013)
“And” between values parts separate entries of the source, which are not always exact repeats. Identical values can stand only once.

Details: Liquid, Pulse-echo method

c1ccccc1 [benzene]
Details	speed of sound
283.15 K, 101 kPa	1371.6 m/s
283.15 K, 1112 kPa	1376.8 m/s
283.15 K, 2281 kPa	1382.4 m/s
283.15 K, 4616 kPa	1393.2 m/s
283.15 K, 6766 kPa	1403.3 m/s
283.15 K, 9100 kPa	1413.6 m/s
283.15 K, 11628 kPa	1424.5 m/s
283.15 K, 14278 kPa	1436 m/s
283.15 K, 15957 kPa	1443.4 m/s
283.15 K, 18556 kPa	1454 m/s
283.15 K, 20823 kPa	1463 m/s
283.15 K, 23405 kPa	1473.4 m/s
298.15 K, 101 kPa	1299.9 m/s and 1300.2 m/s
298.15 K, 888 kPa	1305 m/s
298.15 K, 1246 kPa	1305.8 m/s
298.15 K, 2254 kPa	1311.8 m/s
298.15 K, 2506 kPa	1312.2 m/s
298.15 K, 4580 kPa	1322.5 m/s
298.15 K, 4719 kPa	1323.9 m/s
298.15 K, 6991 kPa	1334.4 m/s
298.15 K, 7131 kPa	1335.5 m/s
298.15 K, 9327 kPa	1346.2 m/s
298.15 K, 9335 kPa	1346.2 m/s
298.15 K, 9408 kPa	1346 m/s
298.15 K, 11563 kPa	1355.8 m/s
298.15 K, 11640 kPa	1357 m/s
298.15 K, 14137 kPa	1368.5 m/s
298.15 K, 14317 kPa	1368.6 m/s
298.15 K, 15927 kPa	1375.9 m/s
298.15 K, 16524 kPa	1379.1 m/s
298.15 K, 18655 kPa	1388.6 m/s
298.15 K, 18844 kPa	1389 m/s
298.15 K, 20826 kPa	1398.1 m/s
298.15 K, 21001 kPa	1398.6 m/s
298.15 K, 23151 kPa	1407.9 m/s
298.15 K, 23834 kPa	1410.7 m/s
298.15 K, 25699 kPa	1418.5 m/s
298.15 K, 26172 kPa	1420.5 m/s
298.15 K, 28369 kPa	1428.5 m/s
313.15 K, 101 kPa	1230.8 m/s
313.15 K, 2047 kPa	1241.3 m/s
313.15 K, 3268 kPa	1247.8 m/s
313.15 K, 5111 kPa	1257.8 m/s
313.15 K, 7199 kPa	1268.7 m/s
313.15 K, 9383 kPa	1280 m/s
313.15 K, 11613 kPa	1291.3 m/s
313.15 K, 14139 kPa	1303.7 m/s
313.15 K, 16386 kPa	1314.6 m/s
313.15 K, 18686 kPa	1325.5 m/s
313.15 K, 21242 kPa	1337.2 m/s
313.15 K, 23254 kPa	1346.4 m/s
313.15 K, 24384 kPa	1351.3 m/s
313.15 K, 25607 kPa	1357.2 m/s
313.15 K, 25608 kPa	1357.3 m/s
313.15 K, 28210 kPa	1368.6 m/s
333.15 K, 101 kPa	1142.4 m/s
333.15 K, 1260 kPa	1148 m/s
333.15 K, 2426 kPa	1155 m/s
333.15 K, 5026 kPa	1170.5 m/s
333.15 K, 7135 kPa	1182.9 m/s
333.15 K, 9195 kPa	1194.5 m/s
333.15 K, 11729 kPa	1208.4 m/s
333.15 K, 14011 kPa	1220.6 m/s
333.15 K, 16310 kPa	1232.7 m/s
333.15 K, 18687 kPa	1244.8 m/s
333.15 K, 20059 kPa	1251.8 m/s
333.15 K, 21112 kPa	1257.2 m/s
333.15 K, 23196 kPa	1267.4 m/s
333.15 K, 25517 kPa	1278.7 m/s
333.15 K, 28165 kPa	1287.7 m/s

ClC(Cl)(Cl)Cl [tetrachloromethane]
Details	speed of sound [m/s]
283.15 K, 101 kPa	969.1
283.15 K, 497 kPa	970.5
283.15 K, 1065 kPa	972.7
283.15 K, 2192 kPa	976.9
283.15 K, 2306 kPa	977.4
283.15 K, 3433 kPa	981.6
283.15 K, 5102 kPa	987.7
283.15 K, 5958 kPa	990.8
283.15 K, 7972 kPa	998
283.15 K, 8771 kPa	1000.6
283.15 K, 9833 kPa	1004.6
283.15 K, 11260 kPa	1009.5
283.15 K, 12970 kPa	1015.5
283.15 K, 13650 kPa	1017.6
283.15 K, 16043 kPa	1026
283.15 K, 19058 kPa	1035.9
283.15 K, 22343 kPa	1046.6
283.15 K, 25816 kPa	1057.5
283.15 K, 30453 kPa	1071.7
298.15 K, 101 kPa	921.1
298.15 K, 583 kPa	923.1
298.15 K, 865 kPa	924.2
298.15 K, 887 kPa	924.4
298.15 K, 1384 kPa	926.4
298.15 K, 1731 kPa	927.8
298.15 K, 1900 kPa	928.4
298.15 K, 2056 kPa	929.1
298.15 K, 2905 kPa	932.5
298.15 K, 3020 kPa	933
298.15 K, 3919 kPa	936.6
298.15 K, 4367 kPa	938.4
298.15 K, 4908 kPa	940.5
298.15 K, 5436 kPa	942.6
298.15 K, 5946 kPa	944.5
298.15 K, 6868 kPa	948
298.15 K, 7358 kPa	949.9
298.15 K, 7761 kPa	951.5
298.15 K, 8818 kPa	955.5
298.15 K, 8930 kPa	955.9
298.15 K, 9903 kPa	959.6
298.15 K, 10321 kPa	961.2
298.15 K, 11239 kPa	964.6
298.15 K, 12541 kPa	969.3
298.15 K, 13397 kPa	972.5
298.15 K, 14945 kPa	978
298.15 K, 15313 kPa	979.4
298.15 K, 17404 kPa	986.8
298.15 K, 17674 kPa	987.8
298.15 K, 20253 kPa	996.7
298.15 K, 20404 kPa	997.2
298.15 K, 22533 kPa	1004.5
298.15 K, 24855 kPa	1012.3
298.15 K, 24984 kPa	1012.8
298.15 K, 25186 kPa	1013.4
298.15 K, 27693 kPa	1021.7
298.15 K, 29953 kPa	1029
298.15 K, 30569 kPa	1030.8
313.15 K, 101 kPa	874.2
313.15 K, 108 kPa	874.2
313.15 K, 478 kPa	875.9
313.15 K, 894 kPa	877.7
313.15 K, 1827 kPa	881.9
313.15 K, 2938 kPa	886.7
313.15 K, 4119 kPa	891.6
313.15 K, 5135 kPa	896.1
313.15 K, 5591 kPa	898
313.15 K, 6975 kPa	903.6
313.15 K, 8334 kPa	909.4
313.15 K, 10049 kPa	916.2
313.15 K, 12992 kPa	927.9
313.15 K, 14421 kPa	933.4
313.15 K, 16421 kPa	941.1
313.15 K, 18812 kPa	949.9
313.15 K, 20514 kPa	956.3
313.15 K, 25209 kPa	972.9
313.15 K, 31645 kPa	994.8
333.15 K, 101 kPa	813
333.15 K, 967 kPa	817.4
333.15 K, 1691 kPa	820.9
333.15 K, 2195 kPa	823.4
333.15 K, 3177 kPa	828.1
333.15 K, 5118 kPa	837.4
333.15 K, 5595 kPa	839.5
333.15 K, 7312 kPa	847.3
333.15 K, 8236 kPa	851.5
333.15 K, 9201 kPa	855.8
333.15 K, 10593 kPa	862
333.15 K, 11851 kPa	867.4
333.15 K, 13131 kPa	872.9
333.15 K, 14740 kPa	879.6
333.15 K, 15989 kPa	884.8
333.15 K, 17758 kPa	892.1
333.15 K, 19476 kPa	898.9
333.15 K, 20905 kPa	904.6
333.15 K, 22422 kPa	910.5
333.15 K, 25433 kPa	922
333.15 K, 27880 kPa	931.1
333.15 K, 31372 kPa	943.7
